Reference: patent US4070458A, “Novel physiologically active peptide and its n-acyl derivatives and processes for producing thereof” (priority 1974, dated 1978)
In brackets after ≈: the same amount, converted by molar mass. Read-outs that look alike come from different tables or passages of the source.

Legend:
[1] = tested on: enzyme which decomposes R-Val-Val-X-Ala-X to Val-X-Ala-X; experiment: Effect of various inhibitors and metal ions on the enzyme activity; format: biochemical, Bacillus sphaericus ATCC 14577
pepsin (SIGMA, 2XCRY) = target: T1, pepsin (SIGMA, 2XCRY) (Sus scrofa, UniProt P00791); experiment: Assay of pepsin-inhibitory activity (casein digestion); format: biochemical
T1 construct: purchased SIGMA 2XCRY
T1 sequence (P00791 60-385): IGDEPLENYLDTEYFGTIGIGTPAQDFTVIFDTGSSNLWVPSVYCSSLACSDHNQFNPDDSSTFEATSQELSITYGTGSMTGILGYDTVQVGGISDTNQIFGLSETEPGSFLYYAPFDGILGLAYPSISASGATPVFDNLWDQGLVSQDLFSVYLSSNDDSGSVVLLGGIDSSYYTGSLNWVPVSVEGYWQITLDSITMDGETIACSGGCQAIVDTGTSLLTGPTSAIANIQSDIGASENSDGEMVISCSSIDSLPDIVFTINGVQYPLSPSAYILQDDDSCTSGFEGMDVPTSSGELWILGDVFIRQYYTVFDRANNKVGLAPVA
Protocol: Assay of pepsin-inhibitory activity in this invention was performed according to the following method: A mixture of 1 ml of 0.6 %, by weight, highly purified casein dissolved in 0.08M lactate buffer solution, pH 2.2, 0.7 ml of 0.02M KCl-HCl buffer solution, pH 2.0, and 0.2 ml of solution containing the compound sample was incubated at 37° C for three minutes. To this mixture 4 mcg of pepsin (SIGMA, 2XCRY) dissolved in 0.1 ml of 0.2M KCl-HCl buffer solution were added. The mixture was incubated at 37° C for 30 minutes. The reaction was stopped by the addition of 2.0 ml of 1.7M perchloric acid. After one hour at room temperature, the optical density (a) of the supernatant liquid was read at 280 mμ. An inhibition rate was obtained according to:
where (b) is the optical density at 280 mμ of the tube without the sample solution.
The ID50 is defined as the amount necessary for 50 % of the inhibition rate.
(§1) As an example of one of the physiological activities of the peptide and N-acyl derivatives thereof obtained according to the present invention, anti-pepsin and anti-cathepsin D activities and also acute toxicity are given in Table 8. The activities (ID50) were assayed according to the method described above and The Journal of Antibiotics 25 689 (1972). The antiprotease activities of the peptide and N-acyl derivatives thereof are extremely high.

mice = experiment: Acute toxicity in mice; format: in vivo
Protocol: as §1
(§2) Note: Acute toxicity was examined by administering the compounds to the
(§3) mice by abdominal injection
(§4) *This value was obtained by intravenous injection.

Solubility in water = format: physicochemical
Source text: The solubilities in water of the N-acyl derivatives according to the present invention are shown in Table 10 compared with the known N-acyl peptides having physiological activity.

Acute toxicity in mice = format: in vivo; settings: mouse, in vivo, ip, abdominal injection
Protocol: as §1, §2, §3, §4

Stomach ulcers in rats = experiment: Stress stomach ulcers in rats (method of Takagi et al.); format: in vivo
Protocol: Stomach ulcers in rats made by the method described in Takagi et al. in the Japanese Journal of Pharmacology, 18, 9-19, […], that is, placing male rats in a cage at 23° C. for 22 hours, are protected or therapetuically treated by the compounds. When 50 mg/kg of pepstatin and the compounds according to the invention were orally given 30 minutes before the stress, and the rats were sacrificed 48 hours afte the stress, the curative ratio of the ulcers was 60 - 75%. When the dose was 10 mg/kg, the inhibition percentage of the ulcers was 50 - 60%.

[2] = Solubility of the hydrolysis product in organic solvents; format: physicochemical
Cathepsin D = experiment: Anti-cathepsin D activity (method of The Journal of Antibiotics 25 689 (1972)); format: biochemical
Protocol: as §1

[3] = Concentration 2 mM, Control (No Addition) 100
[4] = casein, pH 2, 37° C, 30 minutes, read-out: ID50 Pepsin (converted)
[5] = Concentration 10 mM, Control (No Addition) 100

## OCCS [β-Mercaptoethanol]
[1]; 2mM
  Inhibition of the enzyme: Inhibition
[1]; [3]
  Relative activity: 0

## CCCCCCCCCCCCCCCC(=O)N[C@H](C(=O)N[C@@H](CC(C)C)[C@@H](O)CC(=O)N[C@@H](C)C(=O)N[C@@H](CC(C)C)[C@@H](O)CC(=O)O)C(C)C [Palmitoyl-Val-X-Ala-X, N-palmitoyl-Val-X-Ala-X]
Pepsin (SIGMA, 2XCRY); [4]
  IC50: 607 nM

## CC(C)C[C@H](NC(=O)[C@H](C)NC(=O)C[C@H](O)[C@H](CC(C)C)NC(=O)[C@@H](NC(=O)C(C)O)C(C)C)[C@@H](O)CC(=O)O (some centres unmarked) [Lactoyl-Val-X-Ala-X, lactoyl-Val-X-Ala-X]
mice; abdominal injection
  Acute toxicity LD0: ≥ 6000 mg/kg
mice; intravenous injection
  Acute toxicity LD0: ≥ 550 mg/kg
Solubility in water
  Water solubility compared with other derivatives: much more water soluble
Solubility in water; 20° C
  Solubility in water: ≥ 50,000 mcg/ml
Pepsin (SIGMA, 2XCRY); [4]
  IC50: 34.8 nM

## [Cl-].[Cl-].[Zn+2] [Zinc Chloride]
[1]; [3]
  Relative activity: 66
[1]; [5]
  Relative activity: 44

## O=C(O)CN(CCN(CC(=O)O)CC(=O)O)CC(=O)O [Ethylenediaminetetraacetic Acid]
[1]; [3]
  Relative activity: 30

## CC(C)C[C@H](NC(=O)[C@H](C)NC(=O)C[C@H](O)[C@H](CC(C)C)NC(=O)[C@@H](NC(=O)COc1ccccc1)C(C)C)[C@@H](O)CC(=O)O [Phenoxyacetyl-Val-X-Ala-X, N-phenoxyacetyl-Val-X-Ala-X]
Acute toxicity in mice
  LD50: 1500 mg/kg
Solubility in water; 20° C
  Solubility in water: 20,000 mcg/ml
Pepsin (SIGMA, 2XCRY)
  IC50: 31.4 nM

## [N-]=[N+]=[N-].[Na+] [NaN3]
[1]
  Relative activity: 100

## CC(C)CC(=O)N[C@H](C(=O)N[C@H](C(=O)N[C@@H](CC(C)C)[C@@H](O)CC(=O)N[C@@H](C)C(=O)N[C@@H](CC(C)C)[C@@H](O)CC(=O)O)C(C)C)C(C)C [pepstatin]
Stomach ulcers in rats; 50 mg/kg orally 30 minutes before the stress, rats sacrificed 48 hours after the stress
  curative ratio of the ulcers: 60 - 75%
Stomach ulcers in rats; 50 - 200 mg/kg immediately after the stress and once daily for 4 days
  cure of ulcers: rapid cure of ulcers was proven

## O[C@H](CS)[C@H](O)CS (racemic) [Dithiothreitol]
[1]; 2mM
  Inhibition of the enzyme: Inhibition
[1]; [3]
  Relative activity: 0

## CC(=O)[O-].CC(=O)[O-].[Pb+2] [Lead Acetate]
[1]
  Relative activity: 43

## CC(C)C[C@H](NC(=O)[C@H](C)NC(=O)C[C@H](O)[C@H](CC(C)C)NC(=O)[C@@H](NC(=O)C(C)C)C(C)C)[C@@H](O)CC(=O)O [Isobutyryl-Val-X-Ala-X, N-isobutyryl-Val-X-Ala-X]
Pepsin (SIGMA, 2XCRY); [4]
  IC50: 36.7 nM

## CCCCCC(=O)N[C@H](C(=O)N[C@H](C(=O)N[C@@H](CC(C)C)[C@@H](O)CC(=O)N[C@@H](C)C(=O)N[C@@H](CC(C)C)[C@@H](O)CC(=O)O)C(C)C)C(C)C [Pepstatin B, n-caproyl-L-valyl-L-valyl-4-amino-3-hydroxy-6-methylheptanoyl-L-alanyl-4-a mino-3-hydroxy-6-methylheptanoic acid]
Solubility in water; 20° C
  Solubility in water: 100 µg/mL (≈ 143 µM)

## CC(=O)[O-].CC(=O)[O-].[Hg+2] [Mercuric Acetate]
[1]
  Relative activity: 0

## CC(C)C[C@H](NC(=O)[C@H](C)NC(=O)C[C@H](O)[C@H](CC(C)C)NC(=O)[C@@H](N)C(C)C)[C@@H](O)CC(=O)O [Val-X-Ala-X, L-valyl-4-amino-3-hydroxy-6-methylheptanoyl-L-alanyl-4-amino-3-hydroxy-6-m ethylheptanoic acid]
mice; abdominal injection
  Acute toxicity LD0: ≥ 5000 mg/kg
[2]; ether, ethyl acetate, and butyl acetate
  Solubility: insoluble
[2]; methanol, ethanol, pyridine, and acetic acid
  Solubility: soluble
[2]; n-propanol, n-butanol, n-amyl alcohol and acetone
  Solubility: slightly soluble
Pepsin (SIGMA, 2XCRY)
  IC50: 19900 nM

## O=C(O)c1cc[c]([Hg][Cl])cc1 [p-Chloromercuribenzoate]
[1]
  Inhibition of the enzyme: Inhibition
  Relative activity: 2

## CC(C)CC(=O)N[C@H](C(=O)N[C@H](C(=O)N[C@@H](CC(C)C)[C@@H](O)CC(=O)N[C@@H](C)C(=O)N[C@@H](CC(C)C)[C@@H](O)CC(=O)O)C(C)C)C(C)C [Pepstatin A]
Solubility in water
  Solubility in water: 200 µg/mL (≈ 292 µM)

## [Cl][Co][Cl] [Cobalt Chloride]
[1]; [3]
  Relative activity: 134
[1]; [5]
  Relative activity: 166

## [Cl][Hg][Cl] [HgCl2]
[1]; 2mM
  Inhibition of the enzyme: Inhibition

## O=C(O)CI [Monoiodoacetic Acid]
[1]
  Relative activity: 84

## c1cnc2c(c1)ccc1cccnc12 [o-Phenanthroline]
[1]; 2mM
  Inhibition of the enzyme: Inhibition
[1]; [3]
  Relative activity: 0

## CC(C)C[C@H](NC(=O)[C@H](C)NC(=O)C[C@H](O)[C@H](CC(C)C)NC(=O)[C@@H](NC(=O)c1ccccc1)C(C)C)[C@@H](O)CC(=O)O [Benzoyl-Val-X-Ala-X, N-benzoyl-Val-X-Ala-X]
Acute toxicity in mice
  LD50: 1350 mg/kg
Cathepsin D
  ID50 Cathepsin D: 0.05 µg/mL (≈ 0.0824 µM)

## CC(C)C[C@H](NC(=O)[C@H](C)NC(=O)C[C@H](O)[C@H](CC(C)C)NC(=O)[C@@H](NC(=O)C(C)Oc1ccccc1)C(C)C)[C@@H](O)CC(=O)O (some centres unmarked) [Phenoxypropionyl-Val-X-Ala-X, N-2-phenoxypropionyl-Val-X-Ala-X]
Acute toxicity in mice
  LD50: 2100 mg/kg
Solubility in water; 20° C
  Solubility in water: 15,000 mcg/ml
Pepsin (SIGMA, 2XCRY); [4]
  IC50: 30.7 nM

## O=C1CCC(=O)N1Br [N-Bromosuccinimide]
[1]; 2mM
  Inhibition of the enzyme: Inhibition
[1]; [3]
  Relative activity: 0

## [Ca+2].[Cl-].[Cl-] [Calcium Chloride]
[1]
  Relative activity: 110
  increase in activity: 29%

## CC(C)CC(=O)N[C@H](C(=O)N[C@@H](CC(C)C)[C@@H](O)CC(=O)N[C@@H](C)C(=O)N[C@@H](CC(C)C)[C@@H](O)CC(=O)O)C(C)C [Isovaleryl-Val-X-Ala-X, N-isovaleryl-Val-X-Ala-X]
mice; abdominal injection
  Acute toxicity LD0: ≥ 3000 mg/kg
Solubility in water; 20° C
  Solubility in water: 5,000 mcg/ml
Pepsin (SIGMA, 2XCRY); [4]
  IC50: 17 nM

## CC(=O)C(CC(C)C)NC(=O)[C@H](C)NC(=O)CC(O)C(CC(C)C)NC(=O)[C@@H](NC(=O)[C@@H](NC(=O)CC(C)C)C(C)C)C(C)C (stereo partly drawn) [Pepstanone A, isovaleryl-Val-Val-X-Ala-X']
Solubility in water; 20° C
  Solubility in water: 50 µg/mL (≈ 78.1 µM)
